Results as given in US6420330B1, “Use of quaternary carboxylic acid alkanolamine ester salts as microbicide agents” (Cognis Deutschland GmbH, priority 1997, dated 2002).

Key:
Experiment in all cases: DGHM suspension test, microbicidal activity
Assay type in all cases: cell-based
[1] = test system: Candida albicans ATCC 10231
Experimental: (§1) The microbicidal activity of the quanterary carboxylic acid alkanolamine ester salts used in accordance with the invention was tested against the following selected test germs:
(§2) The effectiveness of the compound to be tested was determined by the suspension test in accordance with the guidelines of the Deutsche Gesellschaft for Hygiene and Mikrobiologie (DGHM). Test solutions containing quatemary carboxylic acid alkanolamine ester salts in the quantities shown in the Tables of 50, 100, 200, 400 and 800 mg/l were prepared using water with a hardness of 17° dH and optionally isopropanol.
(§3) At room temperatures, quantities of 0.1 ml test germ suspension were pipetted into test tubes containing 10 ml of the test solutions described above and mixed. After various contact times of 5, 15, 30 and 60 minutes, 1 ml of material was taken from the test tubes by pipette and transferred to 9 ml inactivator solution (inactivators: 3.0% Tween, 0.3% lecithin, 0.1% histidine). After in activation for at least 5 and at most 30 minutes, the living germ count was determined by plating out onto casein peptone-soybean flour peptone (CaSo)-agar plates. Using a spiral plater, the inactivating mixture was directly plated out onto CaSo-agar. The samples were incubated for 24 to 72 hours at 37° C. and macroscopically evaluated for growth. The destruction time or the residual germ count was determined in this way. The germ count of an unchallenged water control is related to the germ count of the inactivated test solution taking the dilution into account. The higher the value, the better the microbicidal effect. The symbol < means that the logarithmic reductuon factor is below the indicated value or, in the case of the symbol >, above the indicated value. The abbreviation CU stands for “concentration used”.

[2] = test system: Pseudomonas aeruginosa ATCC 15442
Experimental: as §1, §2, §3

[3] = test system: Staphylococcus aureus ATCC 6538
Experimental: as §1, §2, §3

[4] = CU 50 mg/l, contact time 5 mins.
[5] = CU 50 mg/l, contact time 15 mins.
[6] = CU 50 mg/l, contact time 30 mins.
[7] = CU 50 mg/l, contact time 60 mins.
[8] = CU 100 mg/l, contact time 5 mins.
[9] = CU 100 mg/l, contact time 15 mins.
[10] = CU 100 mg/l, contact time 30 mins.
[11] = CU 100 mg/l, contact time 60 mins.
[12] = CU 200 mg/l, contact time 5 mins.
[13] = CU 200 mg/l, contact time 15 mins.
[14] = CU 200 mg/l, contact time 30 mins.
[15] = CU 200 mg/l, contact time 60 mins.
[16] = CU 400 mg/l, contact time 5 mins.
[17] = CU 400 mg/l, contact time 15 mins.
[18] = CU 400 mg/l, contact time 30 mins.
[19] = CU 400 mg/l, contact time 60 mins.
[20] = CU 800 mg/l, contact time 5 mins.
[21] = CU 800 mg/l, contact time 15 mins.
[22] = CU 800 mg/l, contact time 30 mins.
[23] = CU 800 mg/l, contact time 60 mins.

## CCCCCCCC(=O)OCC[N+](C)(C)CCOC(=O)CCCCCCC.COS(=O)(=O)[O-] [Example 1, dimethyl diethanolammonium dicaprylic acid ester methosulfate]
[1]; [4]
  logarithmic reduction factor: <0.50
[1]; [5]
  logarithmic reduction factor: <0.37
[1]; [6]
  logarithmic reduction factor: <0.35
[1]; [7]
  logarithmic reduction factor: <0.36
[1]; [8]
  logarithmic reduction factor: <0.50
[1]; [9]
  logarithmic reduction factor: 0.41
[1]; [10]
  logarithmic reduction factor: 0.60
[1]; [11]
  logarithmic reduction factor: 0.70
[1]; [12]
  logarithmic reduction factor: 1.53
[1]; [13]
  logarithmic reduction factor: 2.53
[1]; [14]
  logarithmic reduction factor: 2.91
[1]; [15]
  logarithmic reduction factor: 3.61
[1]; [16]
  logarithmic reduction factor: >4.5
[1]; [17]
  logarithmic reduction factor: >4.37
[1]; [18]
  logarithmic reduction factor: >4.35
[1]; [19]
  logarithmic reduction factor: >4.36
[1]; [20]
  logarithmic reduction factor: >4.50
[1]; [21]
  logarithmic reduction factor: >4.37
[1]; [22]
  logarithmic reduction factor: >4.35
[1]; [23]
  logarithmic reduction factor: >4.36
[2]; [4]
  logarithmic reduction factor: <1.83
[2]; [5]
  logarithmic reduction factor: <1.47
[2]; [6]
  logarithmic reduction factor: <1.55
[2]; [7]
  logarithmic reduction factor: <1.56
[2]; [8]
  logarithmic reduction factor: <1.83
[2]; [9]
  logarithmic reduction factor: <1.47
[2]; [10]
  logarithmic reduction factor: <1.55
[2]; [11]
  logarithmic reduction factor: <1.56
[2]; [12]
  logarithmic reduction factor: <1.83
[2]; [13]
  logarithmic reduction factor: <1.47
[2]; [14]
  logarithmic reduction factor: <1.55
[2]; [15]
  logarithmic reduction factor: <1.56
[2]; [16]
  logarithmic reduction factor: <1.83
[2]; [17]
  logarithmic reduction factor: <1.47
[2]; [18]
  logarithmic reduction factor: 3.22
[2]; [19]
  logarithmic reduction factor: 4.41
[2]; [20]
  logarithmic reduction factor: >5.83
[2]; [21]
  logarithmic reduction factor: >5.47
[2]; [22]
  logarithmic reduction factor: >5.55
[2]; [23]
  logarithmic reduction factor: >5.56
[3]; [4]
  logarithmic reduction factor: <1.32
[3]; [5]
  logarithmic reduction factor: <1.71
[3]; [6]
  logarithmic reduction factor: <1.23
[3]; [7]
  logarithmic reduction factor: <1.32
[3]; [8]
  logarithmic reduction factor: <1.32
[3]; [9]
  logarithmic reduction factor: <1.71
[3]; [10]
  logarithmic reduction factor: <1.23
[3]; [11]
  logarithmic reduction factor: <1.32
[3]; [12]
  logarithmic reduction factor: <1.32
[3]; [13]
  logarithmic reduction factor: <1.71
[3]; [14]
  logarithmic reduction factor: <1.23
[3]; [15]
  logarithmic reduction factor: <1.32
[3]; [16]
  logarithmic reduction factor: <1.32
[3]; [17]
  logarithmic reduction factor: <1.1
[3]; [18]
  logarithmic reduction factor: 1.95
[3]; [19]
  logarithmic reduction factor: 3.54
[3]; [20]
  logarithmic reduction factor: <1.32
[3]; [21]
  logarithmic reduction factor: <3.59
[3]; [22]
  logarithmic reduction factor: <3.96
[3]; [23]
  logarithmic reduction factor: >5.32

## CCCCCCCCCCCC(=O)OCC[N+](C)(CCO)CCOC(=O)CCCCCCCCCCC.COS(=O)(=O)[O-] [Example 5, methyl triethanolammonium dilauric acid ester methosulfate]
[2]; [4]
  logarithmic reduction factor: <1.85
[2]; [5]
  logarithmic reduction factor: <1.79
[2]; [6]
  logarithmic reduction factor: <1.71
[2]; [7]
  logarithmic reduction factor: <1.51
[2]; [8]
  logarithmic reduction factor: <1.85
[2]; [9]
  logarithmic reduction factor: <1.79
[2]; [10]
  logarithmic reduction factor: <1.71
[2]; [11]
  logarithmic reduction factor: <1.81
[2]; [12]
  logarithmic reduction factor: <1.85
[2]; [13]
  logarithmic reduction factor: <1.79
[2]; [14]
  logarithmic reduction factor: <1.71
[2]; [15]
  logarithmic reduction factor: <1.81
[2]; [16]
  logarithmic reduction factor: <1.85
[2]; [17]
  logarithmic reduction factor: <1.79
[2]; [18]
  logarithmic reduction factor: <1.71
[2]; [19]
  logarithmic reduction factor: 3.84
[2]; [20]
  logarithmic reduction factor: <1.85
[2]; [21]
  logarithmic reduction factor: 3.43
[2]; [22]
  logarithmic reduction factor: 3.95
[2]; [23]
  logarithmic reduction factor: 4.40
[3]; [4]
  logarithmic reduction factor: <1.79
[3]; [5]
  logarithmic reduction factor: <1.73
[3]; [6]
  logarithmic reduction factor: 2.53
[3]; [7]
  logarithmic reduction factor: 3.88
[3]; [8]
  logarithmic reduction factor: <1.79
[3]; [9]
  logarithmic reduction factor: 2.38
[3]; [10]
  logarithmic reduction factor: 3.80
[3]; [11]
  logarithmic reduction factor: 5.21
[3]; [12]
  logarithmic reduction factor: 2.52
[3]; [13]
  logarithmic reduction factor: 4.25
[3]; [14]
  logarithmic reduction factor: >5.75
[3]; [15]
  logarithmic reduction factor: >5.86
[3]; [16]
  logarithmic reduction factor: 2.70
[3]; [17]
  logarithmic reduction factor: >5.73
[3]; [18]
  logarithmic reduction factor: >5.75
[3]; [19]
  logarithmic reduction factor: >5.86
[3]; [20]
  logarithmic reduction factor: 3.85
[3]; [21]
  logarithmic reduction factor: >5.73
[3]; [22]
  logarithmic reduction factor: >5.75
[3]; [23]
  logarithmic reduction factor: >5.86

## CCCCCCCCCCCC(=O)OCC[N+](C)(C)CCOC(=O)CCCCCCCCCCC.COS(=O)(=O)[O-] [Example 8, dimethyl diethanolammonium dilauric acid ester methosulfate]
[2]; [4]
  logarithmic reduction factor: <1.88
[2]; [5]
  logarithmic reduction factor: <1.93
[2]; [6]
  logarithmic reduction factor: <1.80
[2]; [7]
  logarithmic reduction factor: <1.90
[2]; [8]
  logarithmic reduction factor: <1.88
[2]; [9]
  logarithmic reduction factor: <1.93
[2]; [10]
  logarithmic reduction factor: <1.80
[2]; [11]
  logarithmic reduction factor: 3.05
[2]; [12]
  logarithmic reduction factor: <1.88
[2]; [13]
  logarithmic reduction factor: <1.93
[2]; [14]
  logarithmic reduction factor: 3.05
[2]; [15]
  logarithmic reduction factor: 3.77
[3]; [4]
  logarithmic reduction factor: <1.39
[3]; [5]
  logarithmic reduction factor: 3.24
[3]; [6]
  logarithmic reduction factor: 4.28
[3]; [7]
  logarithmic reduction factor: 4.23
[3]; [8]
  logarithmic reduction factor: 1.98
[3]; [9]
  logarithmic reduction factor: 3.40
[3]; [10]
  logarithmic reduction factor: 5.29
[3]; [11]
  logarithmic reduction factor: >5.60
[3]; [12]
  logarithmic reduction factor: 2.34
[3]; [13]
  logarithmic reduction factor: 4.64
[3]; [14]
  logarithmic reduction factor: >5.51
[3]; [15]
  logarithmic reduction factor: >5.60

## CCCCCCCCCC(=O)OCC[N+](C)(CCOC(=O)CCCCCCCCC)CCOC(=O)CCCCCCCCC.COS(=O)(=O)[O-] [Example 9, methyl triethanolammonium tricapric acid ester methosulfate]
[2]; [8]
  logarithmic reduction factor: <1.88
[2]; [9]
  logarithmic reduction factor: <1.93
[2]; [10]
  logarithmic reduction factor: <1.80
[2]; [11]
  logarithmic reduction factor: <1.90
[2]; [12]
  logarithmic reduction factor: <1.88
[2]; [13]
  logarithmic reduction factor: <1.93
[2]; [14]
  logarithmic reduction factor: <1.80
[2]; [15]
  logarithmic reduction factor: 2.94
[2]; [16]
  logarithmic reduction factor: <1.88
[2]; [17]
  logarithmic reduction factor: <1.93
[2]; [18]
  logarithmic reduction factor: 3.27
[2]; [19]
  logarithmic reduction factor: 3.72
[3]; [4]
  logarithmic reduction factor: <1.39
[3]; [5]
  logarithmic reduction factor: <1.59
[3]; [6]
  logarithmic reduction factor: <1.51
[3]; [7]
  logarithmic reduction factor: <1.60
[3]; [8]
  logarithmic reduction factor: <1.39
[3]; [9]
  logarithmic reduction factor: <1.59
[3]; [10]
  logarithmic reduction factor: <1.51
[3]; [11]
  logarithmic reduction factor: 2.09
[3]; [12]
  logarithmic reduction factor: <1.39
[3]; [13]
  logarithmic reduction factor: <1.59
[3]; [14]
  logarithmic reduction factor: 1.83
[3]; [15]
  logarithmic reduction factor: 2.97
